{"source": "paper PMC5129982", "about": "“Screen-identified selective inhibitor of lysine demethylase 5A blocks cancer cell growth and drug resistance” (Oncotarget, 2016)", "key": {"[1]": {"tested_on": "H3K4 methylation in HeLa cells", "test": "Western blot of global H3K4 methylation, HeLa", "assay_type": "cell-based, human", "settings": "for H3K4me3 Fold (H3K4me3/Total H3, normalized to DMSO): 48 hr", "description": "(§1) Cells were lysed as described previously. Histones were separated by centrifugation, resuspended in Laemmeli buffer, and sonicated. Protein concentration of cell lysates was measured by Bradford assay. Samples in Laemmeli buffer were boiled 10 minutes at 95°C and loaded onto 7% (whole cell lysates) or 18% (histones) SDS-PAGE gels. Membranes were blocked in 4% non-fat milk in Tris-buffered saline with 0.05% Tween (TBS-T) and incubated with primary antibodies in the same buffer or 5% bovine serum albumin in TBS-T overnight at 4°C. Membranes were incubated with secondary anti-rabbit or anti-mouse antibodies for one hour at room temperature. Blots were visualized by Thermo Scientific Pierce ECL Western Blotting Substrate (32106) or EMD Millipore Immobilon Western Chemiluminescent HRP Substrate (WBKLS0100) on film. Signal was quantified using ImageJ software."}, "[2]": {"molecular_target": "T1, FLAG-KDM6B (1043-1682) (JMJD3) (Homo sapiens, UniProt O15054)", "T1 construct": "FLAG-KDM6B (1043-1682) was purchased from BPS Bioscience (50115); FLAG (N); purchased BPS Bioscience 50115", "T1 sequence (O15054 1043-1682 isoform O15054-1)": "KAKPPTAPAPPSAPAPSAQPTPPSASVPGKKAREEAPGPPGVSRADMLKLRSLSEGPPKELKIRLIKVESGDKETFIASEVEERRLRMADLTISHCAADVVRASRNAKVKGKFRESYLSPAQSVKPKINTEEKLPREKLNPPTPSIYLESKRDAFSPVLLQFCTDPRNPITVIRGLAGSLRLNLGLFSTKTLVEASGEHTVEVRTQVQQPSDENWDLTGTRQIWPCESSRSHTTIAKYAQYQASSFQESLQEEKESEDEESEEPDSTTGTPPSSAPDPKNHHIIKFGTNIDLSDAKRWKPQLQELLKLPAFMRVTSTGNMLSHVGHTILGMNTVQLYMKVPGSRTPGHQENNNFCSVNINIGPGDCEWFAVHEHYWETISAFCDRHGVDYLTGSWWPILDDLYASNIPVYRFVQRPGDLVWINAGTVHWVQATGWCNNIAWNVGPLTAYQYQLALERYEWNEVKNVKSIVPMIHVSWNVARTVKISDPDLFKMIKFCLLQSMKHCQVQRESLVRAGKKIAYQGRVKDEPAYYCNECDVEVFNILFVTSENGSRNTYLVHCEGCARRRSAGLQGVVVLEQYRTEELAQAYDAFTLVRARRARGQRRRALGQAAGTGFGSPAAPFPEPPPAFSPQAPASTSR", "test": "AlphaScreen KDM6B demethylation assay", "assay_type": "biochemical", "description": "(§2) Histone demethylase assays were performed as described previously, with the exception of all enzyme reactions containing 125 μM α-KG. Enzymes were used at the following approximate concentrations in validation experiments, chosen based on their activity in AlphaScreen assays: 19 nM FLAG-KDM5A, 15 nM FLAG-KDM5B, 6 nM FLAG-KDM5C, 29 nM His-FLAG-KDM6A, and 16 nM FLAG-KDM6B. 24 nM FLAG-KDM5A was used for Km determination experiments. Reactions were carried out for 1 hour, or were stopped by addition of 30 mM EDTA every 5 minutes for determining enzyme kinetics. Km values were calculated using the Michaelis-Menten non-linear regression analysis on GraphPad Prism 6.0 software. The concentration of DMSO in demethylation reactions was 0.05%. For reactions with catalase, catalase (Sigma C30) or an equal volume of dilution buffer was added to the peptide-containing buffer before addition of the demethylase. The final concentration of catalase in the reactions was 0.01 mg/ml.\n(§3) The AlphaScreen general IgG (protein A) detection kit from PerkinElmer Life Sciences was used as described previously. The luminescence emission was recorded at 570 nm using the AlphaScreen optic module on a Pherastar (BMG Labtech) or Envision (PerkinElmer Life Sciences) microplate reader."}, "[3]": {"tested_on": "H3K4 methylation in MCF10A cells", "test": "Western blot of global H3K4 methylation, MCF10A", "assay_type": "cell-based, human", "settings": "72 hr treatment", "description": "as §1"}, "[4]": {"tested_on": "MCF10A cells", "test": "WST-1 proliferation assay, MCF10A", "assay_type": "cell-based, human", "settings": "5 days of treatment", "description": "(§4) WST-1 reagent from Roche Applied Sciences (11644807001) was used to measure cell number before drug addition and after 3 or 5 days of growth as described previously. Cells were seeded in 96-well plates at the following number of cells per well: HeLa (2000), MCF7 (2000), ZR-75-1 (1000), MCF10A (1000), MDA-MB-231(5000). DMSO was used at 0.1%. Relative absorbance was calculated by subtracting the average background (media only) signal, dividing by the average signal on day 0, and then dividing by the average day 5/day 0 ratio for the DMSO controls. Significance was calculated by unpaired, two-tailed student's t-test using GraphPad Prism 6.0 software."}, "[5]": {"molecular_target": "T2, full-length FLAG-KDM5A (Homo sapiens, UniProt P29375)", "T2 construct": "Sf21 insect cells were infected with baculovirus to express full-length FLAG-KDM5A; made in house; host or cells: Sf21 insect cells (baculovirus)", "T2 sequence (P29375 whole entry)": "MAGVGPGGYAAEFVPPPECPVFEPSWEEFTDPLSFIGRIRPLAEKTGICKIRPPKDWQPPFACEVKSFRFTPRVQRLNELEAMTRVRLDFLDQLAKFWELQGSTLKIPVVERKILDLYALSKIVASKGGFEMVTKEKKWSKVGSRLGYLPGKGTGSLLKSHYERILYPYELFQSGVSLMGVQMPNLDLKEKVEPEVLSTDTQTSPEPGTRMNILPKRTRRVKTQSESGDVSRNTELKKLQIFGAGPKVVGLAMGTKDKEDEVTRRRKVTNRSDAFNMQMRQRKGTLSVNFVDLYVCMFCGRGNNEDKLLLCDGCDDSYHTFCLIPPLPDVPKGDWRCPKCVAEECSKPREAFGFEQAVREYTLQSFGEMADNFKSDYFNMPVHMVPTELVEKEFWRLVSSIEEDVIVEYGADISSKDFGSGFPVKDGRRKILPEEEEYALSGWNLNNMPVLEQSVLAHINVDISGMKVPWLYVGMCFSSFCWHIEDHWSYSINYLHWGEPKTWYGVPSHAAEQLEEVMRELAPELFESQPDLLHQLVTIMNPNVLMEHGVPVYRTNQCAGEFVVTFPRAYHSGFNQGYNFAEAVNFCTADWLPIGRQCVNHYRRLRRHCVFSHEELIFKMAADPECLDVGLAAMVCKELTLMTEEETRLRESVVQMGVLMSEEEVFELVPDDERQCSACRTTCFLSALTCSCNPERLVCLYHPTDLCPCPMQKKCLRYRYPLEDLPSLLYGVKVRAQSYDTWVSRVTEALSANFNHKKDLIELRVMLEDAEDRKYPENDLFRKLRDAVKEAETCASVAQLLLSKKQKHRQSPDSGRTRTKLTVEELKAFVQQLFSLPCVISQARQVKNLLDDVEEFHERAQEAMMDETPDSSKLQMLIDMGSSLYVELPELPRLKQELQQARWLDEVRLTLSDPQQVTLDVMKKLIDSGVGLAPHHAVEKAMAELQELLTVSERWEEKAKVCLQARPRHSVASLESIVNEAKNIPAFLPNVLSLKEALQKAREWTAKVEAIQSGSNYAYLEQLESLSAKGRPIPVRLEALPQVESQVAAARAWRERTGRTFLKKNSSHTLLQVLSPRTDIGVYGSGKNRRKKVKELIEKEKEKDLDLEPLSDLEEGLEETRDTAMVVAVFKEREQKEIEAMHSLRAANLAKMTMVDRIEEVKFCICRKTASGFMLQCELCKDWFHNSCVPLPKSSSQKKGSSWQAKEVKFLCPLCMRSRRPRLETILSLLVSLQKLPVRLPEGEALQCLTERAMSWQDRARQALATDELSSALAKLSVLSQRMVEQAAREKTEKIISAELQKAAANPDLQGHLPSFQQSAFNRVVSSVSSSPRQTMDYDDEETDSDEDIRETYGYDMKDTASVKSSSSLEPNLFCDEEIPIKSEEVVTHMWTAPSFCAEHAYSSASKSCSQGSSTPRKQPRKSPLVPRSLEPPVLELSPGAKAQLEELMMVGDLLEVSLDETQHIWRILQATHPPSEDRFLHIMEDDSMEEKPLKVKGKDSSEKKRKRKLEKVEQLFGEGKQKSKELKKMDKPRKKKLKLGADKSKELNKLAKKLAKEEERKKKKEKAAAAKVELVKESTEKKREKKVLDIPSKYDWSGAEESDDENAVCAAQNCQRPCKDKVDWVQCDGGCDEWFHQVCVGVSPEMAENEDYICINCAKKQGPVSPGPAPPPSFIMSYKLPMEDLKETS", "test": "AlphaScreen KDM5A demethylation assay", "assay_type": "biochemical", "settings": "for inhibition at 2 µM: 2 μM compound", "description": "AlphaScreen technology (PerkinElmer) was utilized to perform a screen for small molecule inhibitors of KDM5A. The assay was comprised of two steps, a demethylation reaction followed by detection of the product. A biotinylated H3K4me3 peptide was used as substrate in the demethylation reaction with KDM5A in the presence or absence of small molecule inhibitors. The presence of peptide product (H3K4me1/2) was detected using a product-specific antibody and beads. For this, acceptor beads coated in protein A bound to the antibody, which recognized the peptide product. Donor beads coated in streptavidin bound biotin on the peptide substrate. If the demethylation reaction occurred, the beads were in very close proximity and laser excitation of the donor beads at 680nm caused a transfer of energy in the form of reactive singlet oxygen, resulting in emission by the acceptor beads between 520–620 nm ([30, 31], Figure 1A). The luminescent signal detected was a proxy for the amount of demethylation that occurred.\nReactions were carried out for 1 hour, or were stopped by addition of 30 mM EDTA every 5 minutes for determining enzyme kinetics. Km values were calculated using the Michaelis-Menten non-linear regression analysis on GraphPad Prism 6.0 software. The concentration of DMSO in demethylation reactions was 0.05%. For reactions with catalase, catalase (Sigma C30) or an equal volume of dilution buffer was added to the peptide-containing buffer before addition of the demethylase. The final concentration of catalase in the reactions was 0.01 mg/ml.\nas §3\nIC50 values were calculated by log transformation and non-linear regression log(inhibitor) versus response(three parameters) using Graphpad Prism 6.0 software."}, "[6]": {"tested_on": "H3K4 methylation in MCF7 cells", "test": "Western blot of global H3K4 methylation, MCF7", "assay_type": "cell-based, human", "settings": "48 hr", "description": "as §1"}, "[7]": {"tested_on": "HeLa cells", "test": "WST-1 proliferation assay, HeLa", "assay_type": "cell-based, human", "settings": "after 3 days", "description": "as §4"}, "[8]": {"tested_on": "ZR-75-1 cells", "test": "WST-1 proliferation assay, ZR-75-1", "assay_type": "cell-based, human", "settings": "ZR-75-1, 5 days of treatment", "description": "as §4"}, "[9]": {"molecular_target": "T3, FLAG-KDM5B (Homo sapiens, UniProt Q9UGL1)", "T3 construct": "Full-length FLAG-KDM5B, FLAG-KDM5C, and His-FLAG-KDM6A production was detailed previously; FLAG (N); made in house", "T3 sequence (Q9UGL1 whole entry)": "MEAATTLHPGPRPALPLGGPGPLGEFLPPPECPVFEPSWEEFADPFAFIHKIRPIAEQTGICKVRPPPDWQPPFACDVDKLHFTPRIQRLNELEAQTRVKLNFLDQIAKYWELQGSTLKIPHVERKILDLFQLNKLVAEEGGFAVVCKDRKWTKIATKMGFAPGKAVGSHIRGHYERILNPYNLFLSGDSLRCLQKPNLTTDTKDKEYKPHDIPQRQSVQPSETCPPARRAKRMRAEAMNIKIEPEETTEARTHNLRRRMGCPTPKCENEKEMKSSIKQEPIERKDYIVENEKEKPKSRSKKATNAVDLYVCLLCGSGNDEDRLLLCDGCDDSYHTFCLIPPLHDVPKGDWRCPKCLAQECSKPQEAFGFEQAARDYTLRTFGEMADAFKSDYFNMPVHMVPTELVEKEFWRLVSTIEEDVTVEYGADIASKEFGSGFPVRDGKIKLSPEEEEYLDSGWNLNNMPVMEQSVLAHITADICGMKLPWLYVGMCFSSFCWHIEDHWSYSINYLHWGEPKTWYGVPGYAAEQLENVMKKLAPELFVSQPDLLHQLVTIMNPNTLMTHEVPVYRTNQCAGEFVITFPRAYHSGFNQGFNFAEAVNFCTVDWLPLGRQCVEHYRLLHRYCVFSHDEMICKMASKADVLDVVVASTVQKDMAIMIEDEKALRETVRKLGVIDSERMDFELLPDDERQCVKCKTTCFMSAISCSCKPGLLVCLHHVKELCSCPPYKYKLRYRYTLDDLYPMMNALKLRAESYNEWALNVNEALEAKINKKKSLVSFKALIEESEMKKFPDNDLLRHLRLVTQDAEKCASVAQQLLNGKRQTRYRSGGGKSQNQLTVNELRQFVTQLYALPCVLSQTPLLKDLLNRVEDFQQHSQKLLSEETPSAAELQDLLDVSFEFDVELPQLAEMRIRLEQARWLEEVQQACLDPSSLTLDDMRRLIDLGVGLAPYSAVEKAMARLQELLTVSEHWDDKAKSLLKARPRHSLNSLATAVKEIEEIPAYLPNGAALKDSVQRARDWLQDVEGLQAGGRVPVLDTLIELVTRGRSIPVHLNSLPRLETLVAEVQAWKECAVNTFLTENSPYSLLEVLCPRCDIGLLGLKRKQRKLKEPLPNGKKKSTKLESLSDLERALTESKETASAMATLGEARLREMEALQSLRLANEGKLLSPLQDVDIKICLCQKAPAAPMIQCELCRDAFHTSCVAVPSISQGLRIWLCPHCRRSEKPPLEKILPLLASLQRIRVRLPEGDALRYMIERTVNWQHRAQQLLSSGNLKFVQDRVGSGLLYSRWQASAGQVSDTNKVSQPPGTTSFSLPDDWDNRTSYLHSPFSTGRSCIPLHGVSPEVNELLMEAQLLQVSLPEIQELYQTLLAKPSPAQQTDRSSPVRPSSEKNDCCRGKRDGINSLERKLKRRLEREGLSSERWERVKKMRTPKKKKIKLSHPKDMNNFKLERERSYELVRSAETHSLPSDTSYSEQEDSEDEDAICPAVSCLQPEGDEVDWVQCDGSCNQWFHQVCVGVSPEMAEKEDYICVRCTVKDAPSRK", "test": "AlphaScreen KDM5B demethylation assay", "assay_type": "biochemical", "description": "as §2, §3"}, "[10]": {"tested_on": "MDA-MB-231 cells", "test": "WST-1 proliferation assay, MDA-MB-231", "assay_type": "cell-based, human", "settings": "MDA-MB-231, 5 days of treatment", "description": "as §4"}}}
{"smiles": "C=CCOc1c(CNn2cnnc2S)cccc1OC", "note": "[YUKA1, 4-([2-(allyloxy)-3-methoxybenzyl]amino)-4H-1,2,4-triazole-3-thiol]", "values": [{"measurement": "H3K4me2 and H3K4me1 levels", "setting": "[1]; HeLa", "value": "increased"}, {"measurement": "cell activity by global H3K4 methylation changes", "setting": "[1]; HeLa and MCF7 cells, western blot", "value": "cell-active"}, {"measurement": "H3K4me3 Fold (H3K4me3/Total H3, normalized to DMSO)", "setting": "[1]; HeLa, 50 μM", "value": 3.0}, {"measurement": "H3K4me3 Fold (H3K4me3/Total H3, normalized to DMSO)", "setting": "[1]; HeLa, 100 μM", "value": 3.2}, {"measurement": "global H3K4me3 levels", "setting": "[1]; HeLa, 48 hour treatment", "value": "dose-dependent increase"}, {"measurement": "IC50", "setting": "[2]", "value": "> 50", "unit": "µM"}, {"measurement": "H3K4 methylation levels", "setting": "[3]", "value": "did not affect H3K4 methylation levels"}, {"measurement": "cell proliferation", "setting": "[4]", "value": "did not hinder cell proliferation"}, {"measurement": "mode of inhibition with respect to Fe(II)", "setting": "[5]", "value": "uncompetitive with respect to Fe(II)"}, {"measurement": "change of IC50 over a 16-fold range of α-KG concentrations", "setting": "[5]; 150 nM H3K4me3 peptide, 50 μM Fe(II)", "value": "did not change significantly"}, {"measurement": "inhibition at 2 µM", "setting": "[5]; 50 μM Fe(II)", "value": "~70", "unit": "%"}, {"measurement": "inhibition at 2 µM", "setting": "[5]; low Fe(II)", "value": "~25", "unit": "%"}, {"measurement": "enzyme inhibition at low Fe(II)", "setting": "[5]; 5 μM Fe(II)", "value": "too weak to generate robust IC50 curves"}, {"measurement": "effect of catalase on inhibitory potency against KDM5A", "setting": "[5]; 0.01 mg/ml catalase", "value": "did not affect"}, {"measurement": "IC50", "setting": "[5]; AlphaScreen, 1 hour reaction, 0.05–50 μM compound", "value": 2660, "unit": "nM"}, {"measurement": "H3K4me3 Fold (H3K4me3/Total H3, normalized to DMSO)", "setting": "[6]; MCF7, 50 μM", "value": 0.8}, {"measurement": "H3K4me3 Fold (H3K4me3/Total H3, normalized to DMSO)", "setting": "[6]; MCF7, 100 μM", "value": 0.8}, {"measurement": "proliferation relative to DMSO-treated cells", "setting": "[7]", "value": "less than half of DMSO-treated cells"}, {"measurement": "cell proliferation", "setting": "[8]", "value": "decreased cell proliferation"}, {"measurement": "IC50", "setting": "[9]; AlphaScreen", "value": "> 50", "unit": "µM"}, {"measurement": "activity against KDM5B", "setting": "[9]; at 50 μM", "value": "no activity"}, {"measurement": "decrease in cell proliferation", "setting": "[10]", "value": "10–15%"}]}
